pIC50: −log10 of the molar value. Counter-ions that a name gives are not always drawn.

T1 sequence (O75762 whole entry): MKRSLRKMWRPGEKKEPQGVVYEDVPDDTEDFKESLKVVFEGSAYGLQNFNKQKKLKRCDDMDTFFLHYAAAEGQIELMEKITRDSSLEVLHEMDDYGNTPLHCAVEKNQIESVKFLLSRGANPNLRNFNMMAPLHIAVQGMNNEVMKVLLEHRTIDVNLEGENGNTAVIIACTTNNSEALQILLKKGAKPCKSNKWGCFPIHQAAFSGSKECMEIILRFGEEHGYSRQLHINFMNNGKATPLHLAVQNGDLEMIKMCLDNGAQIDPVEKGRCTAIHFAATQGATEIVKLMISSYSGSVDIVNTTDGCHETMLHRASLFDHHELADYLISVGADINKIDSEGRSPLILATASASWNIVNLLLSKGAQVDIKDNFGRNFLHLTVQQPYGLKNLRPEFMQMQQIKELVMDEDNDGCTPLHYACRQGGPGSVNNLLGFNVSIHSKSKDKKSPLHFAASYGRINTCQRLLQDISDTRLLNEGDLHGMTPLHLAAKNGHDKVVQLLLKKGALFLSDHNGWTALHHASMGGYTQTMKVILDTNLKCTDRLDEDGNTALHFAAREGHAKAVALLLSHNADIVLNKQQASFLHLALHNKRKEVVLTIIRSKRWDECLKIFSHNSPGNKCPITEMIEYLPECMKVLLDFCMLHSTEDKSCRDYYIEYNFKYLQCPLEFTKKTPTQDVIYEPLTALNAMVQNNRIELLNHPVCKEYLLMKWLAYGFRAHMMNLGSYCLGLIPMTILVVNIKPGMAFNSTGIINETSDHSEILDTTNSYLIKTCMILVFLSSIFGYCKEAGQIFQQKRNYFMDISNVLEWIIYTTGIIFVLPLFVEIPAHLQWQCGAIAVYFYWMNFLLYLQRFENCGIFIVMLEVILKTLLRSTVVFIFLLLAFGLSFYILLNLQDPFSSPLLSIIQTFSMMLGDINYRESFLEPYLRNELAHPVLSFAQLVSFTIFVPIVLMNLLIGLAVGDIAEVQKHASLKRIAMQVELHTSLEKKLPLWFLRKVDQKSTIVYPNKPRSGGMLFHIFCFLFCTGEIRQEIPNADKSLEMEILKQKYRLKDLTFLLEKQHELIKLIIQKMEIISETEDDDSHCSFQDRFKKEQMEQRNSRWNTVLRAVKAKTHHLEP

The assay addresses T1, hTRPA1 (Homo sapiens, UniProt O75762).
T1 construct: host or cells: CHO-K1 Tet-On, Clone 20 (Chinese Hamster Ovary cells, inducible expression)
Nature of the assay: IC50 determination, dose response calcium flux (FLIPR) assay, ChanTest hTRPA1-CHO stably transfected cell line. Particulars: CHO-K1 Tet-On hTRPA1 cells, 30' preincubation, agonist cinnamaldehyde final 100 uM. It is filed as cell-based. The method, then:
IC50 Determination of Exemplified Compounds Dose Response Assay: ChanTest hTRPA1-CHO Stably Transfected Cell Line
CHO-K1 Tet-On_HOMSA_TRPA1_Clone—20
Growth Media for CHO-K1 Tet-On_HOMSA_TRPA1_Clone—20 • Ham's F-12 with 10% tetracycline-free FBS • 1× penicillin-streptomycin • 1× glutamax • 0.01 mg/ml Blasticidin • 0.40 mg/ml Zeocin • The cell line doubling rate was ˜15 hours. […] Experiments were run at 24 hours post induction.
Plating Conditions CHOK1/TRPA1 Cells: • Harvested cells with 0.025% trypsin/EDTA. • Resuspended cells in growth media without selection antibiotics. • Measured cell density and diluted to 2.4×10^5 cells/ml in media containing 1 ug/ml Doxycycline Plate 25 ul/well into 384 well black/clear tissue culture-treated plates. • Incubated overnight at 37° C.
Reagents: • Replacement Buffer: Hank's Balanced Salt Solution, 20 mM HEPES along with 0.005% BSA and 2× Probenecid • Dye Loading Buffer: Cal-3 NW Calcium dye was prepared by dissolving the contents of one vial with […] Hank's Balanced Salt Solution containing 20 mM HEPES. • Control compounds for CHOK1/TRPA1 cells: AP-18, stock 10 mM, prepare 3.5× compound dilution in a Compound Buffer (HBSS/20 mM HEPES/0.005% BSA)—final concentration 10 uM.
Preparation of Cinnamaldehyde (Agonist Addition):
• Specific gravity=1.046 gm/cc • 1.32 gm/1.046 gm/cc=1.26 ml of stock • Add 1.74 ml DMSO=3.3 M stock • Working solution 4.5× (final 100 uM in Compound Buffer: HBSS/20 mM HEPES/0.005% BSA)
Compounds dilutions were prepared from 5 or 10 mM stock (100% DMSO): • Adjustments of volumes and concentrations were made at time of titration to reflect desired final assay concentrations. • Compounds were tested at either 20 μM three folds dilution 11 steps out or 30 μM two folds dilution 11 steps out. • 3 μl of diluted compound were transferred into Weidmann 384-well plate in duplicates side-by-side.
Compound plates were resuspended with 100 ul of HBSS/20 mM HEPES/0.005% BSA buffer (Compound Buffer):
Growth media was removed from the cell plates (20 ul) and 20 ul of the Replacement Buffer was added followed by addition of 25 ul of diluted dye. All three steps were performed using a Plate Washer BioTek 407. The plates were then incubated for 30′ at RT.
After incubation, both the cell and compound plates were brought to the FLIPR and 20 ul of the diluted compounds/antagonist/bk were transferred to the cell plates by the FLIPR. Plates were then incubated for 30′ at room temperature. After 30′ incubation, plates were returned to the FLIPR and 20 ul of 4.5× Cinnamaldehyde was added to the cell plates. During the compound addition as well as agonist addition, fluorescence readings were taken simultaneously from all 384 wells of the cell plate every 1.5 seconds. Five readings were taken to establish a stable baseline, then 20 ul of sample was rapidly (30 ul/sec) and simultaneously added to each well of the cell plate. The fluorescence was continuously monitored before, during and after sample/agonist addition for a total elapsed time of 100 seconds (compound addition) and 120 seconds (agonist addition). Responses (increase in peak fluorescence) in each well following agonist addition was determined. The initial fluorescence reading from each well, prior to ligand stimulation, was used a zero baseline value for the data from that well.
On the technique in general: A change in cytosolic calcium serves as a functional read-out for many receptors and channels.
For the compound `Cc1noc(C2CCCN(C[C@H](OC(=O)Nc3ccc(Cl)cc3)C(F)(F)F)C2)n1` (mixture of isomers) [Example 28, (4-Chlorophenyl)-carbamic acid (S)-2,2,2-trifluoro-1-[3-(3-methyl-[1,2,4]oxadiazol-5-yl)-piperidin-1-ylmethyl]-ethyl ester hydrochloride], the pIC50 (as a rule, the IC50 on a negative log10 scale, so that one unit is a factor of ten) was 5.73.
Then `O=C(Nc1ccc(Cl)cc1)O[C@@H](CN1CCC[C@H](Oc2ccncc2)C1)C(F)(F)F` (racemic) [Example 22a, (4-chloro-phenyl)-carbamic acid 2,2,2-trifluoro-1-[(R)-3-(pyridin-4-yloxy)-piperidin-1-ylmethyl]-ethyl ester], with 5.38.
With `O=C(Nc1ccc(Cl)cc1)O[C@@H](CN1CCC[C@H](Oc2ccncc2)C1)C(F)(F)F` (racemic) [Example 22b, (4-chlorophenyl)-carbamic acid 2,2,2-trifluoro-1-[(S)-3-(pyridin-4-yloxy)-piperidin-1-ylmethyl]-ethyl ester], the pIC50 is 5.75.
For `O=C(C[C@@H](CN1CCC[C@H](c2cccc(C(F)(F)F)c2)C1)C(F)(F)F)Nc1ccc(Cl)cc1` (racemic) [Example 25, Racemic (S)—N-(4-Chlorophenyl)-4,4,4-trifluoro-3-[(R)-3-(3-trifluoromethylphenyl)-piperidin-1-ylmethyl]-butyramide], the pIC50 is 6.87.
On to `O=C(C[C@@H](CN1CCC[C@@H](c2cccc(C(F)(F)F)c2)C1)C(F)(F)F)Nc1ccc(Cl)cc1` (racemic) [Example 26, Racemic (S)—N-(4-Chloro-phenyl)-4,4,4-trifluoro-3-[(S)-3-(3-trifluoromethyl-phenyl)-piperidin-1-ylmethyl]-butyramide], for which the pIC50 was 5.85.
Then `O=C(Nc1ccc(Cl)cc1)O[C@@H](CN1CCC[C@@H](Cc2ccccc2)C1)C(F)(F)F` (single isomer, unassigned) [Example 10], with 5.87; and `O=C(Nc1ccc(Cl)cc1)O[C@@H](CN1CCC[C@H](Cc2ccccc2)C1)C(F)(F)F` (single isomer, unassigned) [Example 11], with 7.06; and `O=C(Nc1ccc(Cl)cc1)O[C@@H](CN1CCC[C@@H](c2cc(C(F)(F)F)cc(C(F)(F)F)c2)C1)C(F)(F)F` (single isomer, unassigned) [Example 24], with 6.51.
As for `O=C(Nc1ccc(Cl)cc1)O[C@@H](CN1CCC[C@H](c2cccc(C(F)(F)F)c2)C1)C(F)(F)F` (single isomer, unassigned) [Example 30, hydrochloride], the figure is 7.98; as for `COc1ccccc1C1CCCN(CC(OC(=O)Nc2ccc(Cl)cc2)C(F)(F)F)C1` (centres unmarked) [Example 1, (4-Chlorophenyl)-carbamic acid 2,2,2-trifluoro-1-[3-(2-methoxyphenyl)-piperidin-1-ylmethyl]-ethyl ester], 5.30.
Consider `COc1cccc(C2CCCN(CC(OC(=O)Nc3ccc(Cl)cc3)C(F)(F)F)C2)c1` (centres unmarked) [Example 2, (4-Chlorophenyl)-carbamic acid 2,2,2-trifluoro-1-[3-(3-methoxyphenyl)-piperidin-1-ylmethyl]-ethyl ester hydrochloride], for which the pIC50 was 6.46.
Then `COc1cccc([C@H]2CCCN(C[C@H](OC(=O)Nc3ccc(Cl)cc3)C(F)(F)F)C2)c1` [Example 3, (4-Chlorophenyl)-carbamic acid (S)-2,2,2-trifluoro-1-[(R)-3-(3-methoxyphenyl)-piperidin-1-ylmethyl]-ethyl ester hydrochloride], with 6.92; and `COc1cccc([C@@H]2CCCN(C[C@H](OC(=O)Nc3ccc(Cl)cc3)C(F)(F)F)C2)c1` [Example 4, (4-Chlorophenyl)-carbamic acid (S)-2,2,2-trifluoro-1-[(S)-3-(3-methoxyphenyl)-piperidin-1-ylmethyl]-ethyl ester hydrochloride], with 5.11.
`O=C(Nc1ccc(Cl)cc1)O[C@@H](CN1CCC[C@H](c2ccccc2)C1)C(F)(F)F` [Example 5, (4-Chlorophenyl)-carbamic acid (S)-2,2,2-trifluoro-1-((R)-3-phenylpiperidin-1-ylmethyl)-ethyl ester hydrochloride]: the pIC50 is 6.48.
In the case of `O=C(Nc1ccc(Cl)cc1)O[C@@H](CN1CCC[C@@H](c2ccccc2)C1)C(F)(F)F` [Example 6, (4-Chlorophenyl)-carbamic acid (S)-2,2,2-trifluoro-1-((S)-3-phenylpiperidin-1-ylmethyl)-ethyl ester hydrochloride], the pIC50 was 5.83.
Turning to `O=C(Nc1ccc(Cl)cc1)O[C@H](CN1CCC[C@H](c2ccccc2)C1)C(F)(F)F` [Example 7, (4-Chlorophenyl)-carbamic acid (R)-2,2,2-trifluoro-1-((R)-3-phenylpiperidin-1-ylmethyl)-ethyl ester hydrochloride], the pIC50 is 5.19.
As for `O=C(Nc1ccc(Cl)cc1)O[C@H](CN1CCC[C@@H](c2ccccc2)C1)C(F)(F)F` [Example 8, (4-Chlorophenyl)-carbamic acid (R)-2,2,2-trifluoro-1-((S)-3-phenylpiperidin-1-ylmethyl)-ethyl ester hydrochloride], the figure is 5.21.
As for `O=C(Nc1ccc(Cl)cc1)OC(CN1CCCC(Cc2ccccc2)C1)C(F)(F)F` (centres unmarked) [Example 9, (4-Chlorophenyl)-carbamic acid 1-(3-benzylpiperidin-1-ylmethyl)-2,2,2-trifluoroethyl ester hydrochloride salt (1:1)], the pIC50 is 6.47.
Regarding `COc1cccc(CC2CCCN(C[C@H](OC(=O)Nc3ccc(Cl)cc3)C(F)(F)F)C2)c1` (stereo partly drawn) [Example 12, (4-Chlorophenyl)-carbamic acid (S)-2,2,2-trifluoro-1-[3-(3-methoxybenzyl)-piperidin-1-ylmethyl]-ethyl ester hydrochloride salt (1:1)], the pIC50 was 6.26.
In the case of `N#CC1CCCN(CC(OC(=O)Nc2ccc(Cl)cc2)C(F)(F)F)C1` (centres unmarked) [Example 13, (4-Chlorophenyl)-carbamic acid 1-(3-cyanopiperidin-1-ylmethyl)-2,2,2-trifluoroethyl ester], the pIC50 was 6.56.
In the case of `O=C(Nc1ccc(Cl)cc1)OC(CN1CCCC(OCc2ccccc2)C1)C(F)(F)F` (centres unmarked) [Example 14, (4-Chlorophenyl)-carbamic acid 1-(3-benzyloxypiperidin-1-ylmethyl)-2,2,2-trifluoroethyl ester], the pIC50 was 6.86.
On to `O=C(Nc1ccc(Cl)cc1)OC(CN1CCCC(C(F)(F)F)C1)C(F)(F)F` (centres unmarked) [Example 15, (4-chlorophenyl)-carbamic acid 2,2,2-trifluoro-1-(3-trifluoromethylpiperidin-1-ylmethyl)-ethyl ester], for which the pIC50 was 6.25.
As for `COC1CCCN(CC(OC(=O)Nc2ccc(Cl)cc2)C(F)(F)F)C1` (centres unmarked) [Example 16, (4-Chlorophenyl)-carbamic acid 2,2,2-trifluoro-1-(3-methoxypiperidin-1-ylmethyl)-ethyl ester], the pIC50 was 5.38.
As for `CCC1CCCN(CC(OC(=O)Nc2ccc(Cl)cc2)C(F)(F)F)C1` (centres unmarked) [Example 17, (4-Chlorophenyl)-carbamic acid 1-(3-ethylpiperidin-1-ylmethyl)-2,2,2-trifluoroethyl ester], the figure is 6.05; as for `O=C(Nc1ccc(Cl)cc1)OC(CN1CCCC(C2CCCCC2)C1)C(F)(F)F` (centres unmarked) [Example 18, (4-Chlorophenyl)-carbamic acid 1-(3-cyclohexylpiperidin-1-ylmethyl)-2,2,2-trifluoroethyl ester], 6.05; as for `COCCCC1CCCN(CC(OC(=O)Nc2ccc(Cl)cc2)C(F)(F)F)C1` (centres unmarked) [Example 19, (4-Chlorophenyl)-carbamic acid 2,2,2-trifluoro-1-[3-(3-methoxypropyl)-piperidin-1-ylmethyl]-ethyl ester], 6.54.

(Values after patent US20150218141A1, “SUBSTITUTED CARBAMATE COMPOUNDS” (HOFFMANN-LA ROCHE INC, priority 2012, published 2015).)
